“And” between values parts separate entries of the source, which are not always exact repeats. Equal entries are not always repeated. Where two headings read alike, the source gives them in different places.
Legend:
[1] = test system: Colletotrichum lagenarium; settings: in vivo; also: key: 5: clean, no disease; 4: trace of disease; 3: slight disease; 2: moderate disease; 1: severe disease; 0: like controls
Phytophthora infestans = format: in vivo; design: scale not given here; settings: Tomato Late Blight, five days
Piricularia oryzae = format: in vivo; design: scale not given here; settings: Rice Blast, five days
Aspergillus niger [2] = assay: Spore germination inhibition; format: cell-based; settings: 24 hours
Description: (§1) The test procedure involves the preparation of a 100, 10 or 1 ppm. suspension of test compound in water. The solutions are placed in one dram "opticlear" vials and separately inoculated with one drop of a spore suspension prepared from seven-day cultures of Aspergillus niger and 14-day old cultures of Monilinia fructicola and Stemphylium sarcinaeforme,all grown on potato-dextrose agar. The vials containing the separately inoculated solutions of test compounds are then capped and placed on a rotating tumbler for 24 hours to assure contact of the organism with the test compound. After 24 hours, the vials are removed and examined for inhibition of […].

Monilinia fructicola [3] = assay: Spore germination inhibition; format: cell-based; settings: for inhibition at 1 ppm / inhibition at 10 ppm: 24 hours; for inhibition at 100 ppm: 24 h, read-out: % Inhibition of Spore Germination
Description: as §1

[4] = test system: Stemphylium sarcinaeforme; assay: Spore germination inhibition; format: cell-based; settings: Stemphylium sarciniforme; for inhibition at 100 ppm: 24 h, read-out: % Inhibition of Spore Germination; for inhibition at 1 ppm / inhibition at 10 ppm: 24 hours
Description: as §1

Aerobacter aerogenes = format: cell-based; settings: 100 ppm; subcultures 72 hours at 37° C; also: key: 0: No Effect; 9: Kill of Bacteria; 5: Stasis, but not Kill of all Bacteria
Staphylococcus aureus = format: cell-based; settings: 100 ppm; subcultures 72 hours at 37° C; also: key: 0: No Effect; 9: Kill of Bacteria; 5: Stasis, but not Kill of all Bacteria
Xanthomonas vesicatoria = format: cell-based; settings: 100 ppm; subcultures 72 hours at 37° C; also: key: 0: No Effect; 9: Kill of Bacteria; 5: Stasis, but not Kill of all Bacteria
Aspergillus niger [5] = assay: Agar dilution plate; format: cell-based; settings: An; 100 ppm, 72 hours at 23° C
Method: (§2) Test compounds were incorporated in a Sabouraud's dextrose agar in an amount sufficient to provide the active ingredient in a concentration of about 100 ppm. A twenty-ml. sample of the agar mixture is placed in a petri dish and permitted to solidify. An agar sample is inoculated with the test organism set forth below and then covered and incubated for a period of about 72 hours at 23° C. After incubation, growth observations are made. The test results are recorded and the test is repeated twice for the purpose of comparison.
(§3) The data obtained with a variety of test organisms is shown in the table below, and ratings are shown as 0 or 5. O indicates no control, 5 indicates 100% effectiveness of the test compound against the specified organism.

Fusarium lycopersici = assay: Agar dilution plate; format: cell-based; settings: Fl; 100 ppm, 72 hours at 23° C
Method: as §2, §3

Monilinia fructicola [6] = assay: Agar dilution plate; format: cell-based; settings: Mf; 100 ppm, 72 hours at 23° C
Method: as §2, §3

Pythium de Baryanum = assay: Agar dilution plate; format: cell-based; settings: Pd; 100 ppm, 72 hours at 23° C
Method: as §2, §3

Rhizoctonia solani = assay: Agar dilution plate; format: cell-based; settings: Rs; 100 ppm, 72 hours at 23° C
Method: as §2, §3

[7] = test system: Stemphylium sarcinaeforme; assay: Agar dilution plate; format: cell-based; settings: Ss; 100 ppm, 72 hours at 23° C
Method: as §2, §3
Ss= Stemphylium sarcinaeforme

Pseudomonas solaracaerum = format: cell-based; settings: 100 ppm, 72 hours at 23° C
[8] = test system: Collectotrichum lagenarium; assay: Agar dilution plate; format: cell-based; settings: Cl; 100 ppm, 72 hours at 23° C
Method: as §2, §3
Cl= Collectotrichum lagenarium

Verticillium albo-atrum = assay: Agar dilution plate; format: cell-based; settings: Va; 100 ppm, 72 hours at 23° C
Method: as §2, §3
Va= Verticillium albo-atrum

Venturia inaequalis = settings: in vivo; also: key: 5: clean, no disease; 4: trace of disease; 3: slight disease; 2: moderate disease; 1: severe disease; 0: like controls

Structure (SMILES): O=[N+]([O-])C(CSC(=S)N1CCCCC1)CSC(=S)N1CCCCC1 [Example 3, 2-Nitrotrimethylene 1-Piperidinecarbodithioate]
- disease control index [1]: 4
- disease control index (Phytophthora infestans; 150 ppm): 4
- disease control index (Phytophthora infestans; 300 ppm): 4
- disease control index (Piricularia oryzae; 150 ppm): 5
- disease control index (Piricularia oryzae; 300 ppm): 5

Structure (SMILES): CN(C)C(=S)SC(C[N+](=O)[O-])c1ccc(Br)cc1 (stereo not drawn) [Example 30, p-Bromo-α-(nitromethyl)benzyl Dimethyldithiocarbamate]
- inhibition at 1 ppm (Aspergillus niger [2]): 0%
- inhibition at 10 ppm (Aspergillus niger [2]): 100%
- inhibition at 100 ppm (Aspergillus niger [2]): 100%
- inhibition at 1 ppm (Monilinia fructicola [3]): 100%
- inhibition at 10 ppm (Monilinia fructicola [3]): 100%
- inhibition at 100 ppm (Monilinia fructicola [3]): 100%
- inhibition at 100 ppm [4]: 100%
- inhibition at 1 ppm [4]: 0%
- inhibition at 10 ppm [4]: 100%
- Antibacterial Activity rating (Aerobacter aerogenes): 0
- Antibacterial Activity rating (Staphylococcus aureus): 5
- Antibacterial Activity rating (Xanthomonas vesicatoria): 0
- Agar Dilution Plate rating (Aspergillus niger [5]): 0
- Agar Dilution Plate rating (Fusarium lycopersici): 0
- Agar Dilution Plate rating (Monilinia fructicola [6]): 5 (100% effectiveness of the test compound against the specified organism)
- Agar Dilution Plate rating (Pythium de Baryanum): 5 (100% effectiveness of the test compound against the specified organism)
- Agar Dilution Plate rating (Rhizoctonia solani): 5 (100% effectiveness of the test compound against the specified organism)
- Agar Dilution Plate rating [7]: 0
- Agar Dilution Plate rating (Pseudomonas solaracaerum): 0
- Agar Dilution Plate rating [8]: 5 (100% effectiveness of the test compound against the specified organism)
- Agar Dilution Plate rating (Verticillium albo-atrum): 0
- disease control index (Phytophthora infestans; 150 ppm): 2
- disease control index (Phytophthora infestans; 300 ppm): 3
- disease control index (Phytophthora infestans; 600 ppm): 3
- disease control index (Phytophthora infestans; 1200 ppm): 4
- disease control index (Piricularia oryzae; 150 ppm): 5
- disease control index (Piricularia oryzae; 300 ppm): 5
- disease control index (Piricularia oryzae; 600 ppm): 5
- disease control index (Piricularia oryzae; 1200 ppm): 5
- disease control index (Venturia inaequalis): 5

Structure (SMILES): CN(C)C(=S)SC(C[N+](=O)[O-])c1ccccc1Cl (stereo not drawn) [Example 27, o-Chloro-α-(nitromethyl)benzyl Dimethyldithiocarbamate]
- inhibition at 1 ppm (Aspergillus niger [2]): 0%
- inhibition at 10 ppm (Aspergillus niger [2]): 100%
- inhibition at 100 ppm (Aspergillus niger [2]): 100%
- inhibition at 1 ppm (Monilinia fructicola [3]): 0%
- inhibition at 10 ppm (Monilinia fructicola [3]): 100%
- inhibition at 100 ppm (Monilinia fructicola [3]): 100%
- inhibition at 100 ppm [4]: 100%
- inhibition at 1 ppm [4]: 100%
- inhibition at 10 ppm [4]: 100%
- Antibacterial Activity rating (Aerobacter aerogenes): 9
- Antibacterial Activity rating (Staphylococcus aureus): 5
- Antibacterial Activity rating (Xanthomonas vesicatoria): 5
- Agar Dilution Plate rating (Aspergillus niger [5]): 0
- Agar Dilution Plate rating (Fusarium lycopersici): 5 (100% effectiveness of the test compound against the specified organism)
- Agar Dilution Plate rating (Monilinia fructicola [6]): 5 (100% effectiveness of the test compound against the specified organism)
- Agar Dilution Plate rating (Pythium de Baryanum): 5 (100% effectiveness of the test compound against the specified organism)
- Agar Dilution Plate rating (Rhizoctonia solani): 0
- Agar Dilution Plate rating [7]: 5 (100% effectiveness of the test compound against the specified organism)
- Agar Dilution Plate rating (Pseudomonas solaracaerum): 0
- Agar Dilution Plate rating [8]: 5 (100% effectiveness of the test compound against the specified organism)
- Agar Dilution Plate rating (Verticillium albo-atrum): 5 (100% effectiveness of the test compound against the specified organism)
- disease control index (Phytophthora infestans; 150 ppm): 2
- disease control index (Phytophthora infestans; 300 ppm): 2
- disease control index (Phytophthora infestans; 600 ppm): 4
- disease control index (Phytophthora infestans; 1200 ppm): 4
- disease control index (Piricularia oryzae; 150 ppm): 2
- disease control index (Piricularia oryzae; 300 ppm): 4
- disease control index (Piricularia oryzae; 600 ppm): 4
- disease control index (Piricularia oryzae; 1200 ppm): 4
- disease control index (Venturia inaequalis): 5 and 0

Structure (SMILES): CN(C)C(=S)SCC(CSC(=S)N(C)C)[N+](=O)[O-] [Example 1, 2-Nitrotrimethylene Dimethyldithiocarbamate]
- inhibition at 1 ppm (Aspergillus niger [2]): 100%
- inhibition at 10 ppm (Aspergillus niger [2]): 100%
- inhibition at 100 ppm (Aspergillus niger [2]): 100%
- inhibition at 1 ppm (Monilinia fructicola [3]): 100%
- inhibition at 10 ppm (Monilinia fructicola [3]): 100%
- inhibition at 100 ppm (Monilinia fructicola [3]): 100%
- inhibition at 100 ppm [4]: 100%
- inhibition at 1 ppm [4]: 100%
- inhibition at 10 ppm [4]: 100%
- Antibacterial Activity rating (Aerobacter aerogenes): 0
- Antibacterial Activity rating (Staphylococcus aureus): 5
- Antibacterial Activity rating (Xanthomonas vesicatoria): 0
- Agar Dilution Plate rating (Aspergillus niger [5]): 0
- Agar Dilution Plate rating (Fusarium lycopersici): 0
- Agar Dilution Plate rating (Monilinia fructicola [6]): 5 (100% effectiveness of the test compound against the specified organism)
- Agar Dilution Plate rating (Pythium de Baryanum): 0
- Agar Dilution Plate rating (Rhizoctonia solani): 0
- Agar Dilution Plate rating [7]: 5 (100% effectiveness of the test compound against the specified organism)
- Agar Dilution Plate rating (Pseudomonas solaracaerum): 0
- Agar Dilution Plate rating [8]: 5 (100% effectiveness of the test compound against the specified organism)
- Agar Dilution Plate rating (Verticillium albo-atrum): 0
- disease control index (Phytophthora infestans; 150 ppm): 3
- disease control index (Phytophthora infestans; 300 ppm): 4
- disease control index (Phytophthora infestans; 600 ppm): 4
- disease control index (Phytophthora infestans; 1200 ppm): 5
- disease control index (Piricularia oryzae; 150 ppm): 2
- disease control index (Piricularia oryzae; 300 ppm): 2
- disease control index (Piricularia oryzae; 600 ppm): 3
- disease control index (Piricularia oryzae; 1200 ppm): 3
- disease control index (Venturia inaequalis): 3 and 0

Structure (SMILES): O=[N+]([O-])CC(SC(=S)N1CCCC1)c1ccccc1 (stereo not drawn) [Example 15, α-(Nitromethyl)benzyl 1-pyrrolidinecarbodithioate]
- disease control index [1]: 5
- disease control index (Piricularia oryzae; 150 ppm): 4
- disease control index (Piricularia oryzae; 300 ppm): 4

Structure (SMILES): CN(C)C(=S)SC(C[N+](=O)[O-])c1cccs1 (stereo not drawn) [Example 33, α-(Nitromethyl)-2-thenyl Dimethyldithiocarbamate]
- inhibition at 1 ppm (Aspergillus niger [2]): 0%
- inhibition at 10 ppm (Aspergillus niger [2]): 100%
- inhibition at 100 ppm (Aspergillus niger [2]): 100%
- inhibition at 1 ppm (Monilinia fructicola [3]): 100%
- inhibition at 10 ppm (Monilinia fructicola [3]): 100%
- inhibition at 100 ppm (Monilinia fructicola [3]): 100%
- inhibition at 100 ppm [4]: 100%
- inhibition at 1 ppm [4]: 100%
- inhibition at 10 ppm [4]: 100%
- Antibacterial Activity rating (Aerobacter aerogenes): 0
- Antibacterial Activity rating (Staphylococcus aureus): 5
- Antibacterial Activity rating (Xanthomonas vesicatoria): 0
- Agar Dilution Plate rating (Aspergillus niger [5]): 0
- Agar Dilution Plate rating (Fusarium lycopersici): 0
- Agar Dilution Plate rating (Monilinia fructicola [6]): 5 (100% effectiveness of the test compound against the specified organism)
- Agar Dilution Plate rating (Pythium de Baryanum): 0
- Agar Dilution Plate rating (Rhizoctonia solani): 0
- Agar Dilution Plate rating [7]: 5 (100% effectiveness of the test compound against the specified organism)
- Agar Dilution Plate rating (Pseudomonas solaracaerum): 0
- Agar Dilution Plate rating [8]: 5 (100% effectiveness of the test compound against the specified organism)
- Agar Dilution Plate rating (Verticillium albo-atrum): 0
- disease control index (Phytophthora infestans; 150 ppm): 5
- disease control index (Phytophthora infestans; 300 ppm): 5
- disease control index (Piricularia oryzae; 150 ppm): 5
- disease control index (Piricularia oryzae; 300 ppm): 5
- disease control index (Venturia inaequalis): 5

Structure (SMILES): COc1ccc(C(C[N+](=O)[O-])SC(=S)N(C)C)cc1OC (stereo not drawn) [Example 25, 3,4-Dimethoxy-α-(nitromethyl)benzyl Dimethyldithiocarbamate]
- inhibition at 1 ppm (Aspergillus niger [2]): 0%
- inhibition at 10 ppm (Aspergillus niger [2]): 100%
- inhibition at 100 ppm (Aspergillus niger [2]): 100%
- inhibition at 1 ppm (Monilinia fructicola [3]): 0%
- inhibition at 10 ppm (Monilinia fructicola [3]): 100%
- inhibition at 100 ppm (Monilinia fructicola [3]): 100%
- inhibition at 100 ppm [4]: 100%
- inhibition at 1 ppm [4]: 100%
- inhibition at 10 ppm [4]: 100%
- Antibacterial Activity rating (Aerobacter aerogenes): 5
- Antibacterial Activity rating (Staphylococcus aureus): 5
- Antibacterial Activity rating (Xanthomonas vesicatoria): 5
- Agar Dilution Plate rating (Aspergillus niger [5]): 0
- Agar Dilution Plate rating (Fusarium lycopersici): 0
- Agar Dilution Plate rating (Monilinia fructicola [6]): 5 (100% effectiveness of the test compound against the specified organism)
- Agar Dilution Plate rating (Pythium de Baryanum): 5 (100% effectiveness of the test compound against the specified organism)
- Agar Dilution Plate rating (Rhizoctonia solani): 0
- Agar Dilution Plate rating [7]: 5 (100% effectiveness of the test compound against the specified organism)
- Agar Dilution Plate rating (Pseudomonas solaracaerum): 0
- Agar Dilution Plate rating [8]: 5 (100% effectiveness of the test compound against the specified organism)
- Agar Dilution Plate rating (Verticillium albo-atrum): 5 (100% effectiveness of the test compound against the specified organism)
- disease control index (Phytophthora infestans; 150 ppm): 5
- disease control index (Phytophthora infestans; 300 ppm): 5
- disease control index (Phytophthora infestans; 600 ppm): 5
- disease control index (Phytophthora infestans; 1200 ppm): 5
- disease control index (Piricularia oryzae; 150 ppm): 3
- disease control index (Piricularia oryzae; 300 ppm): 4
- disease control index (Piricularia oryzae; 600 ppm): 5
- disease control index (Piricularia oryzae; 1200 ppm): 4
- disease control index (Venturia inaequalis): 5

— patent US4148795A, “Dithiocarbamate ester bactericides and fungicides” (American Cyanamid Company, priority 1976, dated 1979)
